Test results taken from the supplement of paper PMC4862054.

Legend:
Conditions in all cases: incubation time: 72 h
[1] = tested on: BT-474; experiment: drug sensitivity score (DSS), CellTiter-Blue viability (DSS (AUC-based score)); higher = stronger viability inhibition; extreme values may be limits of the assay
Experimental: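 DSRT with the CellTiter-Blue (resazurin reduction) viability readout, fluorescence 560/590 nm, 72 h incubation. Plates were normalised to DMSO and benzethonium chloride controls. DSS is computed from the area under the fitted dose-response curve (5 or 9 concentrations).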

[2] = tested on: MDA-MB-436; experiment: normalised viability (% of control), CellTiter-Blue; higher = more viable cells (about 100 = DMSO control)
Experimental: (§1)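 DSRT, CellTiter-Blue viability, 72 h incubation. Signal is normalised to DMSO and benzethonium chloride controls. Value is the normalised response at dose 3.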

[3] = tested on: CAL-120; experiment: as above
Experimental: as §1

[4] = tested on: MDA-MB-453; experiment: as above
Experimental: as §1

[5] = tested on: MDA-MB-231; experiment: as above
Experimental: as §1

[6] = tested on: HCC1599; experiment: as above
Experimental: as §1

[7] = tested on: BT-549; experiment: as above
Experimental: as §1

[8] = tested on: Hs578T; experiment: as above
Experimental: as §1

[9] = tested on: CAL-85-1; experiment: as above
Experimental: as §1

[10] = tested on: CAL-51; experiment: as above
Experimental: as §1

[11] = tested on: HCC1937; experiment: as above
Experimental: as §1

[12] = tested on: MDA-MB-468; experiment: as above
Experimental: as §1

[13] = tested on: MFM-223; experiment: as above
Experimental: as §1

[14] = tested on: HCC1143; experiment: as above
Experimental: as §1

[15] = tested on: SK-BR-3; experiment: as above
Experimental: as §1

[16] = tested on: CAL-148; experiment: as above
Experimental: as §1

[17] = tested on: HDQ-P1; experiment: as above
Experimental: as §1

[18] = tested on: DU-4475; experiment: as above
Experimental: as §1

[19] = tested on: BT-474; experiment: as above
Experimental: as §1

Row | Compound | drug sensitivity score [1] | normalised viability ([2]; 100 nM) | normalised viability ([3]; 100 nM) | normalised viability ([4]; 10 nM) | normalised viability ([5]; 100 nM) | normalised viability ([6]; 100 nM) | normalised viability ([7]; 100 nM) | normalised viability ([8]; 100 nM) | normalised viability ([9]; 10 nM) | normalised viability ([10]; 10 nM) | normalised viability ([11]; 100 nM) | normalised viability ([12]; 100 nM) | normalised viability ([13]; 100 nM) | normalised viability ([14]; 100 nM) | normalised viability ([15]; 100 nM) | normalised viability ([16]; 10 nM) | normalised viability ([17]; 10 nM) | normalised viability ([18]; 10 nM) | normalised viability ([19]; 100 nM) | normalised viability ([2]; 10 nM) | normalised viability ([3]; 10 nM) | normalised viability ([4]; 1 nM) | normalised viability ([5]; 10 nM) | normalised viability ([6]; 10 nM) | normalised viability ([7]; 10 nM) | normalised viability ([8]; 10 nM) | normalised viability ([9]; 1 nM) | normalised viability ([10]; 1 nM) | normalised viability ([11]; 10 nM) | normalised viability ([12]; 10 nM) | normalised viability ([13]; 10 nM) | normalised viability ([14]; 10 nM) | normalised viability ([15]; 10 nM) | normalised viability ([16]; 1 nM) | normalised viability ([17]; 1 nM) | normalised viability ([18]; 1 nM) | normalised viability ([19]; 10 nM)
1 | Cn1cc(C2=C(c3cn(C4CCN(Cc5ccccn5)CC4)c4ccccc34)C(=O)NC2=O)c2ccccc21 [Enzastaurin] | 2.68 | 84.9% | 91.6% | 97.5% | 93.5% | 114% | 104% | 68.7% | 96.9% | 108% | 86.2% | 105% | 92.7% | 98% | 69.8% | 95.3% | 123% | 123% | 108% |  |  |  |  |  |  |  |  |  |  |  |  |  |  |  |  |  | 
2 | CC(C)(C)NC(=O)[C@H]1CC[C@H]2[C@@H]3CC[C@H]4NC(=O)C=C[C@]4(C)[C@H]3CC[C@]12C [Finasteride] | 0 | 110% | 108% | 103% | 94.2% | 106% | 107% | 105% | 97% | 109% | 91% | 103% | 95.1% | 107% | 104% | 93.2% | 106% | 107% | 125% |  |  |  |  |  |  |  |  |  |  |  |  |  |  |  |  |  | 
3 | Nc1ccn([C@@H]2O[C@H](CO)[C@@H](O)C2(F)F)c(=O)n1 [Gemcitabine] | 0 |  |  |  |  |  |  |  |  |  |  |  |  |  |  |  |  |  |  | 94.3% | 67.3% | 111% | 77.9% | 88.8% | 84% | 82.1% | 93.2% | 105% | 63.7% | 68.9% | 92.6% | 70.7% | 77.4% | 106% | 125% | 116% | 101%
4 | CC(C)C[C@H](NC(=O)[C@@H](COC(C)(C)C)NC(=O)[C@H](Cc1ccc(O)cc1)NC(=O)[C@H](CO)NC(=O)[C@H](Cc1c[nH]c2ccccc12)NC(=O)[C@H](Cc1cnc[nH]1)NC(=O)[C@@H]1CCC(=O)N1)C(=O)N[C@@H](CCCNC(=N)N)C(=O)N1CCC[C@H]1C(=O)NNC(N)=O [Goserelin] | 0 | 102% | 107% | 102% | 91.8% | 94.4% | 102% | 113% | 102% | 113% | 104% | 101% | 91.3% | 87.3% | 110% | 101% | 117% | 96.2% | 115% |  |  |  |  |  |  |  |  |  |  |  |  |  |  |  |  |  | 
